Values belong to the compound of their own block, whether it stands above or below them. Activity calls are given as the source filed them. The rule behind the calls is not given here.
Legend:
PC-3 = experiment: Anticancer activity against human PC3 cells after 48 hrs by MTT assay; type: functional, cell-based; details: PC-3, 48 h
A549 [1] = experiment: Induction of cell cycle arrest in human A549 cells assessed as accumulation at G1 phase at 2 uM after 48 hrs by propidium iodide staining-based flow cytometry (reference value: 76.31 %); type: functional
A549 [2] = experiment: Induction of cell cycle arrest in human A549 cells assessed as accumulation at G2 phase at 2 uM after 48 hrs by propidium iodide staining-based flow cytometry (reference value: 9.23 %); type: functional
A549 [3] = experiment: Induction of apoptosis in human A549 cells assessed as activation of caspase-3 activity at 1 to 2 uM after 48 hrs by ELISA relative to control; type: functional
Nucleic Acid = experiment: Binding affinity to calf thymus DNA assessed as change in melting temperature at compound:DNA molar ratio of 1:5 after 18 hrs at 37 degC by thermal denaturation assay (RVb = 0.3 to 3.1 degC); type: nucleic-acid assay; details: Bos taurus
A549 [4] = experiment: Induction of cell cycle arrest in human A549 cells assessed as decrease in accumulation at G0/G1 phase after 48 hrs by propidium iodide staining-based flow cytometry; type: functional
A-431 = experiment: Anticancer activity against human A431 cells after 48 hrs by MTT assay; type: functional, cell-based; details: A-431, 48 h
A549 [5] = experiment: Induction of cell cycle arrest in human A549 cells assessed as accumulation at G2 phase at 1 uM after 48 hrs by propidium iodide staining-based flow cytometry (reference value: 9.23 %); type: functional
A549 [6] = experiment: Induction of apoptosis in human A549 cells assessed as early apoptotic cells at 2 uM after 48 hrs by annexin V-FITC and propidium iodide staining method (RVb = 0.01 %); type: functional
A549 [7] = experiment: Induction of apoptosis in human A549 cells assessed as necrotic cells at 1 uM after 48 hrs by annexin V-FITC and propidium iodide staining method (RVb = 0.04 %); type: functional
A549 [8] = experiment: Induction of apoptosis in human A549 cells assessed as viable cells at 1 uM after 48 hrs by annexin V-FITC and propidium iodide staining method (RVb = 99.93 %); type: functional; details: A549, 48 h, read-out: Activity
A549 [9] = experiment: Anticancer activity against human A549 cells after 48 hrs by MTT assay; details: A549, 48 h
A549 [10] = experiment: Induction of apoptosis in human A549 cells assessed as oligoneucleosomal DNA fragmentation at 1 to 2 uM after 48 hrs by agarose gel electrophoresis technique; type: functional, cell-based
A549 [11] = experiment: Induction of cell cycle arrest in human A549 cells assessed as accumulation at S phase at 1 uM after 48 hrs by propidium iodide staining-based flow cytometry (reference value: 13.31 %); type: functional
A549 [12] = experiment: Induction of apoptosis in human A549 cells assessed as early apoptotic cells at 1 uM after 48 hrs by annexin V-FITC and propidium iodide staining method (RVb = 0.01 %); type: functional
A549 [13] = experiment: Induction of cell cycle arrest in human A549 cells assessed as accumulation at S phase at 2 uM after 48 hrs by propidium iodide staining-based flow cytometry (reference value: 13.31 %); type: functional
A549 [14] = experiment: Induction of cell cycle arrest in human A549 cells assessed as accumulation at Sub G1 phase at 1 uM after 48 hrs by propidium iodide staining-based flow cytometry (reference value: 0.67 %); type: functional
A549 [15] = experiment: Induction of apoptosis in human A549 cells assessed as necrotic cells at 2 uM after 48 hrs by annexin V-FITC and propidium iodide staining method (RVb = 0.04 %); type: functional
COLO 205 = experiment: Anticancer activity against human COLO205 cells after 48 hrs by MTT assay; type: functional, cell-based; details: COLO 205, 48 h
A549 [16] = experiment: Induction of apoptosis in human A549 cells assessed as late apoptotic cells at 1 uM after 48 hrs by annexin V-FITC and propidium iodide staining method (RVb = 0.02 %); type: functional
A549 [17] = experiment: Induction of apoptosis in human A549 cells assessed as viable cells at 2 uM after 48 hrs by annexin V-FITC and propidium iodide staining method (RVb = 99.93 %); type: functional; details: A549, 48 h, read-out: Activity
A549 [18] = experiment: Induction of apoptosis in human A549 cells assessed as nuclear condensation at 2 uM after 48 hrs by Hoechst 33258 staining-based fluorescence microscopy relative to control; type: functional, cell-based
HEK293 = experiment: Cytotoxicity activity against human HEK293 cells after 48 hrs by MTT assay; type: cell-based; details: hek293, 48 h
A549 [19] = experiment: Induction of cell cycle arrest in human A549 cells assessed as accumulation at G1 phase at 1 uM after 48 hrs by propidium iodide staining-based flow cytometry (reference value: 76.31 %); type: functional
A549 [20] = experiment: Induction of cell cycle arrest in human A549 cells assessed as accumulation at subG1 phase after 48 hrs by propidium iodide staining-based flow cytometry; type: functional
A549 [21] = experiment: Induction of cell cycle arrest in human A549 cells assessed as accumulation at Sub G1 phase at 2 uM after 48 hrs by propidium iodide staining-based flow cytometry (reference value: 0.67 %); type: functional
A549 [22] = experiment: Induction of apoptosis in human A549 cells assessed as late apoptotic cells at 2 uM after 48 hrs by annexin V-FITC and propidium iodide staining method (RVb = 0.02 %); type: functional

Structure (SMILES): COc1cc2c(cc1OCCCCCCN1c3cccc4cccc(c34)S1(=O)=O)N=C[C@@H]1CCCN1C2=O
IC50 (PC-3): 1.52 µM
Activity (A549 [1]): 20.48%
Activity (A549 [2]): 0.37%
fold change (FC) (A549 [3]): 4
ΔTm (Nucleic Acid): 7.6 °C
Activity (A549 [4]): Dose-dependent effect
IC50 (A-431): 1.72 µM
Activity (A549 [5]): 3.75%
Activity (A549 [6]): 26.07%
Activity (A549 [7]): 1.93%
viability at 1 µM (A549 [8]): 40.6%
IC50 (A549 [9]): 1.05 µM
Activity (A549 [10]): Active
Activity (A549 [11]): 15.34%
Activity (A549 [12]): 32.55%
Activity (A549 [13]): 9.93%
Activity (A549 [14]): 42.83%
Activity (A549 [15]): 2.77%
IC50 (COLO 205): 1.21 µM
Activity (A549 [16]): 24.94%
viability at 2 µM (A549 [17]): 28.8%
Activity (A549 [18]): Active
Activity (HEK293): Non-toxic
Activity (A549 [19]): 36.77%
Activity (A549 [20]): Dose-dependent effect
Activity (A549 [21]): 66.94%
Activity (A549 [22]): 42.4%

Structure (SMILES): COc1cc2c(cc1OCCCCCN1C(=O)c3cccc4cccc1c34)N=C[C@@H]1CCCN1C2=O
IC50 (PC-3): 15.5 µM
ΔTm (Nucleic Acid): 5.2 °C
IC50 (A-431): 3.71 µM
IC50 (A549 [9]): 21.9 µM
IC50 (COLO 205): 9.76 µM
Activity (HEK293): Non-toxic

Structure (SMILES): COc1cc2c(cc1OCCCCN1c3cccc4cccc(c34)S1(=O)=O)N=C[C@@H]1CCCN1C2=O
IC50 (PC-3): 14.9 µM
ΔTm (Nucleic Acid): 3.9 °C
IC50 (A-431): 3.34 µM
IC50 (A549 [9]): 19.6 µM
IC50 (COLO 205): 3.71 µM
Activity (HEK293): Non-toxic

Structure (SMILES): COc1cc2c(cc1OCCCn1c(=C(C#N)C#N)c3cccc4cccc1c43)N=C[C@@H]1CCCN1C2=O
IC50 (PC-3): 17.9 µM
ΔTm (Nucleic Acid): 3.4 °C
IC50 (A-431): 4.67 µM
IC50 (A549 [9]): 4.86 µM
IC50 (COLO 205): 6.1 µM
Activity (HEK293): Non-toxic

Structure (SMILES): COc1cc2c(cc1OCCCCCCn1c(=C(C#N)C#N)c3cccc4cccc1c43)N=C[C@@H]1CCCN1C2=O
IC50 (PC-3): 19.3 µM
ΔTm (Nucleic Acid): 2 °C
IC50 (A-431): 1.25 µM
IC50 (A549 [9]): 18.9 µM
IC50 (COLO 205): 16.7 µM
Activity (HEK293): Non-toxic

Structure (SMILES): COc1cc2c(cc1O)N=C[C@@H]1CCCN1C2=O
IC50 (PC-3): 1.19 µM
ΔTm (Nucleic Acid): 0.7 °C
IC50 (A-431): 1.65 µM
Activity (A549 [5]): 8.57%
Activity (A549 [7]): 1.91%
viability at 1 µM (A549 [8]): 41.2%
IC50 (A549 [9]): 1.11 µM
Activity (A549 [11]): 38.93%
Activity (A549 [12]): 39.1%
Activity (A549 [14]): 10.15%
IC50 (COLO 205): 0.86 µM
Activity (A549 [16]): 17.73%
Activity (A549 [18]): Active
Activity (A549 [19]): 40.78%

Structure (SMILES): COc1cc2c(cc1OCCCN1c3cccc4cccc(c34)S1(=O)=O)N=C[C@@H]1CCCN1C2=O
IC50 (PC-3): 9.8 µM
ΔTm (Nucleic Acid): 4.9 °C
IC50 (A-431): 9.56 µM
IC50 (A549 [9]): 10 µM
IC50 (COLO 205): 7.66 µM
Activity (HEK293): Non-toxic

Structure (SMILES): COc1cc2c(cc1OCCCCN1C(=O)c3cccc4cccc1c34)N=C[C@@H]1CCCN1C2=O
IC50 (PC-3): 3.23 µM
ΔTm (Nucleic Acid): 4 °C
IC50 (A-431): 1.34 µM
IC50 (A549 [9]): 9.8 µM
IC50 (COLO 205): 3.31 µM
Activity (HEK293): Non-toxic

Structure (SMILES): COc1cc2c(cc1OCCCN1C(=O)c3cccc4cccc1c34)N=C[C@@H]1CCCN1C2=O
IC50 (PC-3): 7.67 µM
ΔTm (Nucleic Acid): 3.2 °C
IC50 (A-431): 3.04 µM
IC50 (A549 [9]): 13.8 µM
IC50 (COLO 205): 8.65 µM
Activity (HEK293): Non-toxic

Second part, led by results:

IC50 (PC-3): 9.7 µM
ΔTm (Nucleic Acid): 5.6 °C
IC50 (A-431): 4.67 µM
IC50 (A549 [9]): 14.4 µM
IC50 (COLO 205): 15.1 µM
Structure (SMILES): COc1cc2c(cc1OCCCCCN1c3cccc4cccc(c34)S1(=O)=O)N=C[C@@H]1CCCN1C2=O
Activity (HEK293): Non-toxic

IC50 (PC-3): 2.51 µM
IC50 (A-431): 0.03 µM
IC50 (COLO 205): 1.69 µM
Structure (SMILES): COc1cccc2c1C(=O)c1c(O)c3c(c(O)c1C2=O)C[C@@](O)(C(=O)CO)C[C@@H]3O[C@H]1C[C@H](N)[C@H](O)[C@H](C)O1 [DOXORUBICIN]

IC50 (PC-3): 4.89 µM
ΔTm (Nucleic Acid): 2.1 °C
IC50 (A-431): 3.31 µM
IC50 (A549 [9]): 32.7 µM
IC50 (COLO 205): 14.3 µM
Structure (SMILES): COc1cc2c(cc1OCCCCCCN1C(=O)c3cccc4cccc1c34)N=C[C@@H]1CCCN1C2=O
Activity (HEK293): Non-toxic

IC50 (PC-3): 36.5 µM
ΔTm (Nucleic Acid): 2.8 °C
IC50 (A-431): 4.46 µM
IC50 (A549 [9]): 5.86 µM
IC50 (COLO 205): 25.9 µM
Structure (SMILES): COc1cc2c(cc1OCCCCCn1c(=C(C#N)C#N)c3cccc4cccc1c43)N=C[C@@H]1CCCN1C2=O
Activity (HEK293): Non-toxic

IC50 (PC-3): 14.8 µM
ΔTm (Nucleic Acid): 2.7 °C
IC50 (A-431): 2.5 µM
IC50 (A549 [9]): 25.5 µM
IC50 (COLO 205): 2.95 µM
Structure (SMILES): COc1cc2c(cc1OCCCCn1c(=C(C#N)C#N)c3cccc4cccc1c43)N=C[C@@H]1CCCN1C2=O
Activity (HEK293): Non-toxic

Reference: ChEMBL document CHEMBL1926626, “Design and synthesis of benzo[c,d]indolone-pyrrolobenzodiazepine conjugates as potential anticancer agents” (Bioorg Med Chem, 2012)
